Patent US7572438B2, “Mutant having uracil phosphoribosyl transferase activity” (Transgene S.A., priority 1998, dated 2009)

What was measured:
PANC-1 = test: LD50 of 5-FC and 5-FU on adenovirus-infected PANC-1 cells (MOI 5); type: cell-based, human; details: PANC-1, mock-infected, 6 days
Method: (§1) The LD50 values for 5-FC and 5-FU are determined vis-a-vis the three human tumor cell lines infected with the different viruses (Ad null, Ad.CMV-FCY1, Ad.CMV-FUR1A1Δ105 and Ad.CMV-FCU1) or coinfected with the adenoviruses expressing the FCY1 and FUR1Δ105 genes. The cells are infected at an MOI of 5 and then cultured in the presence of different concentrations of 5-FC and 5-FU. After 6 days of culture, the viability of the cells is determined using trypan blue. The LD50 values listed in Table 6 are the means of four counts.

SK-BR-3 = test: LD50 of 5-FC and 5-FU on adenovirus-infected SK-BR-3 cells (MOI 5); type: cell-based, human; details: SK-BR-3, mock-infected, 6 days
Method: as §1

B16(F0) cells [1] = test: Sensitivity of transfected B16(F0) clones to 5-FC and 5-FU (LD50, trypan blue); type: cell-based, mouse; details: 6 days with drug
Method: The sensitivities of the different clones to 5-FC and 5-FU are also tested after incubating in the presence of the drugs for 6 days. The following values are the means of four counts (using trypan blue) of cell mortality.

B16(F0) cells [2] = test: Bystander effect: mixtures of untransfected and pCI-neoFCU1-transfected B16(F0) clones with 5-FC; type: cell-based, mouse; details: B16/B16 pCI-neoFCU1 100%/0%, 4 days
Method: These clone mixtures were then tested in the presence of different concentrations of 5-FC. Cell mortality (using trypan blue) is assessed after culturing for 4 days in the presence of 5-FC.

SW480 = test: LD50 of 5-FC and 5-FU on adenovirus-infected SW480 cells (MOI 5); type: cell-based, human; details: 6 days
Method: as §1

Row | SMILES | LD50 (μM) 5-FC, Mock (PANC-1) | LD50 (μM) 5-FC, Mock (SK-BR-3) | LD50 for 5-FC, untransfected cells (B16(F0) cells [1]) | LD50 (μM) + 5-FC (B16(F0) cells [2]) | LD50 (μM) 5-FC, Mock (SW480) | LD50 (μM) 5-FU, Mock (PANC-1) | LD50 (μM) 5-FU, Mock (SK-BR-3) | LD50 (μM) 5-FU, Mock (SW480)
1 | Nc1nc(=O)[nH]cc1F [5-FC, 5-fluorocytosine] | 10,000 μM | 5000 µM | 1000 µM | 5000 µM | 5000 µM | – | – | –
2 | O=c1[nH]cc(F)c(=O)[nH]1 [5-FU, 5-fluorouracil] | – | – | – | – | – | 0.3 µM | 0.1 µM | 0.5 µM
